Patent US20250145637A1, “SULFONAMIDE DERIVATIVE, PREPARATION METHOD THEREFOR AND MEDICAL USE THEREOF” (Jiangsu Hengrui Pharmaceuticals Co. Ltd., priority 2021, published 2025)
pIC50: −log10 of the molar value.

Key:
[1] = target: human KAT6A (Homo sapiens (Human), UniProt Q92794); assay: KAT6 enzyme activity assay (AlphaScreen method), KAT6A; assay type: biochemical; details: inhibition of the enzyme human KAT6A
From the text: Test Example 1: KAT6 Enzyme Activity Assay (AlphaScreen Method)
I. Reagents and instrument • 1. KAT6A (customized by Chempartner) • 2. Ovalbumin (Sigma-Aldrich, A5378-5G) • 3. 2 M Tris-HCl solution, pH 7.8, sterile (Sangon, B548140-0500) • 4. 5 M NaCl solution (Sangon, B548121-0100) • 5. EDTA (0.5 M), pH 8.0, RNase-free (Thermofisher, AM9260G) • 6. Tween-20 (Sangon, A100777-0500) • 7. DTT, 1 M (Invitrogen, P2325) • 8. Acetyl coenzyme A (Ac-CoA, CAYMAN, Cat. No. 16160) • 9. Recombinant histone H3.1 biotinylated (human) (Active Motif 31696) • 10. 384-well plate, light gray (Perkin Elmer, Cat. No. 6005350) • 11. Anacardic acid (MCE, Cat. No. HY—N2020) • 12. AlphaScreen streptavidin donor beads, 5 mg (PerkinElmer, 6760002) • 13. AlphaScreen protein A acceptor beads, 5 mg (PerkinElmer, 6760137M) • 14. Acetylated-lysine antibody #9441 (CST 9441S) • 15. PHERA star microplate reader (BMG labtech) • II. Experimental method
a. 1× assay buffer: 100 mM Tris-HCl, pH 7.8; 15 mM NaCl; 1 mM EDTA; 0.01% tween-20; 1 mM DTT; 0.01% m/v ovalbumin.
b. KAT enzyme solution: 1.25 nM (final concentration), prepared in 1× assay buffer.
c. Mixed substrate of Ac-CoA and H3: a mixed substrate of 1000 nM (final concentration) Ac-CoA and 55 nM (final concentration) H3, prepared in 1× assay buffer.
d. Compounds: initial concentration of 100 μM, 3-fold dilution, 10 gradient concentrations. All compound concentrations were diluted 83-fold with 1× assay buffer for later use.
e. Assay reagent: 8 ng/μL (final concentration) AlphaScreen protein A acceptor beads, 8 ng/μL AlphaScreen streptavidin donor beads, 1:1500 diluted acetylated-lysine antibody, and 100 μM anacardic acid; prepared in 1× assay buffer.
2. Experimental Procedure
a. The prepared enzyme solution was added to a 384-well plate at 3 μL/well, and 3 μL of 1× assay buffer was added to each well in columns 23 and 24 (Min).
b. 3 μL of compound solution was added to each well, and 3 μL of buffer was added to each Min well; 3 μL of DMSO solution was added to each well in columns 1 and 2 (Max) as controls. The plate was centrifuged, shaken for 2 min, and incubated at room temperature for 15 min.
c. The mixed substrate of Ac-CoA and H3 was added at 6 μL/well, and the plate was centrifuged, shaken for 2 min, and incubated at room temperature for 20 min.
d. The assay reagent was added at 6 μL/well, and the plate was centrifuged, shaken for 2 min, and incubated in the dark at room temperature for 120 min.
e. Plate reading was performed on the microplate reader, and AlphaScreen counts were recorded.
f. Plotting was performed using the Graphpad software, and the IC50 values of the compounds were calculated.

[2] = Pharmacokinetic evaluation in SD rats; assay type: in vivo; details: both sexes, rat, plasma, po, i.g., 2.0 mg/kg; for Vd/F: read-out: Apparent distribution volume Vz/F; for AUC(0-t): read-out: Area under curve AUC0-t; for CL/F: read-out: Clearance rate CL/F; for half-life: read-out: Half-life T½ (converted); for Cmax: read-out: Plasma concentration Cmax
Procedure: Test Example 5: Pharmacokinetic Evaluation
SD rats were used as test animals. After intragastric (i.g.) administration of the compounds of the present disclosure to SD rats, the plasma concentrations at different time points were measured by the LC/MS/MS method. The pharmacokinetic behavior of the compounds of the present disclosure in SD rats was studied, and their pharmacokinetic profiles were evaluated.
Compound 2, compound 7, compound 21, and compound 23.
16 SD rats, of which half were male and half female, were evenly divided into 4 groups. The rats were provided by Vital River Laboratory Animal Technology Co., Ltd. The rats were fasted overnight and intragastrically administered the compounds.
2.3. Compound Solution Preparation
A certain amount of test compound was weighed out and dissolved in 5% DMSO+5% tween 80+90% normal saline to prepare a 0.2 mg/mL colorless clear solution.
The dose administered was 2.0 mg/kg, and the volume was 10.0 mL/kg.
0.1 mL blood samples were collected from the orbit before the administration and 0.25 h, 0.5 h, 1.0 h, 2.0 h, 4.0 h, 6.0 h, 8.0 h, 11.0 h and 24.0 h post-dose. The blood samples were placed into EDTA-K2 anticoagulation tubes and centrifuged at 10,000 rpm for 1 min (4° C.), and plasma was separated within 1 h and stored at −20° C. before analysis. The process from the blood collection to the centrifugation was performed in an ice bath. Access to food was given 2 h post-dose.
Measurement of plasma concentrations in SD rats after compounds were administered in different concentrations: 25 μL samples of the SD rat plasma collected at various time points post-dose were taken, and to each of the samples was added 25 μL of camptothecin (an internal standard for compound 2, 100 ng/mL) or 50 μL of tolbutamide (an internal standard for compound 7, 100 ng/mL) or 50 μL of verapamil (an internal standard for compounds 21 and 23, 100 ng/mL). Protein was precipitated with 200 μL of acetonitrile, and after 5 min of vortexing, the mixtures were centrifuged at 3700 rpm for 10 min. 120 µL of supernatant was taken and vortexed with 30 μL of water for 5 min, and a 5 μL sample was taken for LC/MS/MS analysis.

human KAT6A, sequence (Q92794 whole entry): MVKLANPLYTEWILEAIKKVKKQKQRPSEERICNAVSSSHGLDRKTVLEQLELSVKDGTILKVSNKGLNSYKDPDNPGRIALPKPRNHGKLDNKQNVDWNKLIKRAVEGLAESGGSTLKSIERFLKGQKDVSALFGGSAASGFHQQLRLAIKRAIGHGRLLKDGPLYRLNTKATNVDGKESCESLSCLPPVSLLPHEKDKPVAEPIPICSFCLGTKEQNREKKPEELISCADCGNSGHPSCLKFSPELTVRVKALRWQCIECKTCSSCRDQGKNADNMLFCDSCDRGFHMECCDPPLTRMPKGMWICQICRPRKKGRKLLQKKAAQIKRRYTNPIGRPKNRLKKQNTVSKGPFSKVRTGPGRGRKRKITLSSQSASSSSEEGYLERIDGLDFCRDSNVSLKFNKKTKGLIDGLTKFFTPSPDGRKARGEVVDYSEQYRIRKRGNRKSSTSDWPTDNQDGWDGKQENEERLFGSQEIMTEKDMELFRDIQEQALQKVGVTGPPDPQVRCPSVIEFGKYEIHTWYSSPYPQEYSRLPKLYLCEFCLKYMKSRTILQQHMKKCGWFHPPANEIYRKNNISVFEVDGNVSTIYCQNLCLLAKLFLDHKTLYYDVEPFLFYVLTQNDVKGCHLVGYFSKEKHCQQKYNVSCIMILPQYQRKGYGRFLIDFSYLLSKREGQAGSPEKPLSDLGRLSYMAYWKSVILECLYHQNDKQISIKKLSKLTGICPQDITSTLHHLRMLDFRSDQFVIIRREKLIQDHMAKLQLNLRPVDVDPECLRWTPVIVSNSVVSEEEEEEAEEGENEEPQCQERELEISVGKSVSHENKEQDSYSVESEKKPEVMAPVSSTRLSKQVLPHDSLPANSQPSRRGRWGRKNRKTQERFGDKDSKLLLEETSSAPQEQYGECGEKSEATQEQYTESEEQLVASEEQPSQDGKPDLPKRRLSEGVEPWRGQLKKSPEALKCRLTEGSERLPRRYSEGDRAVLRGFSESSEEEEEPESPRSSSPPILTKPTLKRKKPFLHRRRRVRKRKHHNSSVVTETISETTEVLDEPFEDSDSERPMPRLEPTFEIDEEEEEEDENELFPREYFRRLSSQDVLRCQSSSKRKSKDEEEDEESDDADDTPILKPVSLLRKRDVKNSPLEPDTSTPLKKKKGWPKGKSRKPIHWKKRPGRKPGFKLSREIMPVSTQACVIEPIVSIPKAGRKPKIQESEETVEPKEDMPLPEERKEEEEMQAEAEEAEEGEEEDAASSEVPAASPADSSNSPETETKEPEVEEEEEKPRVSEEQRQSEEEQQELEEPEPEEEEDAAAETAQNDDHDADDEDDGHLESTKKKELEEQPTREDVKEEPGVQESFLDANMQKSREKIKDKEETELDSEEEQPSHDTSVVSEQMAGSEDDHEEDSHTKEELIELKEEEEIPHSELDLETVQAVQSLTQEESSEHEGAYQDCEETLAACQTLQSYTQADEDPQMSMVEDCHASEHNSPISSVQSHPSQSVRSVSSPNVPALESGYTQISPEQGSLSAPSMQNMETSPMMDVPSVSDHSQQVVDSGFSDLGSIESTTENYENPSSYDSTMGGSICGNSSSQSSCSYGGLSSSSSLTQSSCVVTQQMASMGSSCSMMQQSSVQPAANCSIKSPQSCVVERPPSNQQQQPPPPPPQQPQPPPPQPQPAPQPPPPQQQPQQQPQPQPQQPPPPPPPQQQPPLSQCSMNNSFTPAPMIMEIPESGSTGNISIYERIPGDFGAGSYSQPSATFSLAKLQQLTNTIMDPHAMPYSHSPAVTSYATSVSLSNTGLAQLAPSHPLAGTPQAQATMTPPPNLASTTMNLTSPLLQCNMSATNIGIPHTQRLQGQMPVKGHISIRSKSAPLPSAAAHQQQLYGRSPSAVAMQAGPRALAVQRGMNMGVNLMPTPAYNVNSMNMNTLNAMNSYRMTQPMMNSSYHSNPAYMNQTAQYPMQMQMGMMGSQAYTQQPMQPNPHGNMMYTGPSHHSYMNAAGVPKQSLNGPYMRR

pIC50 [1] | Vd/F [2] [L/kg] | AUC(0-t) [2] [ng·h/mL] | CL/F [2] [mL/min/kg] | half-life [2] [h] | Cmax [2] [ng/mL] | Structure (SMILES)
9.22 |  |  |  |  |  | COc1cccc(OC)c1S(=O)(=O)Nc1noc2cc(Cn3cccn3)c3c(c12)OCC3 [Compound 1, N-(4-((1H-pyrazol-1-yl)methyl)-2,3-dihydrobenzofuro[7,6-d]isoxazol-8-yl)-2,6-dimethoxybenzenesulfonamide]
 | 0.202 | 43300 | 0.8 | 2.96 | 8210 | COc1cccc(OC)c1S(=O)(=O)Nc1noc2cc(Cn3cccn3)c3c(c12)OCCC3 [Compound 2, N-(5-((1H-pyrazol-1-yl)methyl)-3,4-dihydro-2H-chromeno[8,7-d]isoxazol-9-yl)-2,6-dimethoxybenzenesulfonamide]
9.30 |  |  |  |  |  | COc1ccccc1S(=O)(=O)Nc1noc2cc(Cn3cccn3)c3c(c12)OCCC3 [Compound 3, N-(5-((1H-pyrazol-1-yl)methyl)-3,4-dihydro-2H-chromeno[8,7-d]isoxazol-9-yl)-2-methoxybenzenesulfonamide]
9.00 |  |  |  |  |  | COc1cccc(OC)c1S(=O)(=O)Nc1noc2cc(Cn3cccn3)c3c(c12)OC(F)(F)O3 [Compound 5, N-(4-((1H-pyrazol-1-yl)methyl)-2,2-difluoro-[1,3]dioxolo[4′,5′:5,6]benzo[1,2-d]isoxazol-8-yl)-2,6-dimethoxybenzenesulfonamide]
9.30 | 0.25 | 81300 | 0.614 | 6.71 | 9200 | CCOc1cc(C)ccc1S(=O)(=O)Nc1noc2cc(Cn3cccn3)c3c(c12)OCCC3 [Compound 7, N-(5-((1H-pyrazol-1-yl)methyl)-3,4-dihydro-2H-chromeno[8,7-d]isoxazol-9-yl)-2-ethoxy-4-methylbenzenesulfonamide]
9.15 |  |  |  |  |  | Cc1ccc(S(=O)(=O)Nc2noc3cc(Cn4cccn4)c4c(c23)OCCC4)c(OCC(F)(F)F)c1 [Compound 8, N-(5-((1H-pyrazol-1-yl)methyl)-3,4-dihydro-2H-chromeno[8,7-d]isoxazol-9-yl)-4-methyl-2-(2,2,2-trifluoroethoxy)benzenesulfonamide]
9.15 |  |  |  |  |  | COc1ccc(F)cc1S(=O)(=O)Nc1noc2cc(Cn3cccn3)c3c(c12)OCCC3 [Compound 9, N-(5-((1H-pyrazol-1-yl)methyl)-3,4-dihydro-2H-chromeno[8,7-d]isoxazol-9-yl)-5-fluoro-2-methoxybenzenesulfonamide]
9.05 |  |  |  |  |  | COc1cccc(OC(F)(F)F)c1S(=O)(=O)Nc1noc2cc(Cn3cccn3)c3c(c12)OCCC3 [Compound 10, N-(5-((1H-pyrazol-1-yl)methyl)-3,4-dihydro-2H-chromeno[8,7-d]isoxazol-9-yl)-2-methoxy-6-(trifluoromethoxy)benzenesulfonamide]
8.54 |  |  |  |  |  | COc1ccccc1S(=O)(=O)Nc1noc2cc(Cn3cccn3)c3c(c12)OCC3 [Compound 20, N-(4-((1H-pyrazol-1-yl)methyl)-2,3-dihydrobenzofuro[7,6-d]isoxazol-8-yl)-2-methoxybenzenesulfonamide]
8.32 | 0.47 | 61200 | 0.431 | 13.7 | 6240 | COc1cccc(OC(F)(F)F)c1S(=O)(=O)Nc1noc2cc(Cn3cccn3)c3c(c12)OCC3 [Compound 23, N-(4-((1H-pyrazol-1-yl)methyl)-2,3-dihydrobenzofuro[7,6-d]isoxazol-8-yl)-2-methoxy-6-(trifluoromethoxy)benzenesulfonamide]
